The record followed here is patent US20030100515A1, “Benzophenone glycopyranosides, preparation and therapeutic use” (priority 1999, published 2003).

Molecules are shown by their SMILES. Marks after values point to notes of the source that are not given here.

The subject of one experiment is female mice of the C57BL/6J strain. As to the kind of experiment: Lowering of serum cholesterol level in mice subjected to a fatty diet (single oral dose). The format is in vivo. As to conditions: total serum cholesterol; female C57BL/6J mice on fatty diet (1.25% cholesterol, 0.5% cholic acid); single dose 10 mg/kg by tubage. The method, then: The antiatheromatous activity of the compounds according to the invention was evaluated as a function of their ability to lower the serum cholesterol level in mice subjected to a fatty diet. […] This correlation affords a test which is more rapid than direct experiments on the atheromatous plaque, which require a lengthy treatment of the animals and an expensive histological study of the walls of the aortic arch.
The test used consists in administering a single dose of the compound to female mice of the C57BL/6J strain. The protocol is as follows: On the first day (D0), the mice are fasted from 9 am to 5 pm, a blood sample being taken at 2 pm. At 5 pm, a given amount of food (a fatty diet comprising 1.25% of cholesterol and 0.5% of cholic acid) is distributed. On the second day (D1), the food leftovers are weighed at 9 am and the mice are fasted from 9 am to 2 pm. A blood sample is taken at 2 pm. For the treated groups of mice, the compound is administered at 9 am on the second day (D1) by tubage in the form of a suspension in a 3% aqueous solution of gum. The control groups receive only the aqueous gum.
[…] The total serum cholesterol is assayed and the results are expressed as the percentage inhibition of the increase in cholesterolemia compared with the control group.
Turning to `N#Cc1ccc(C(=O)c2ccc(O[C@@H]3OC[C@H](O)[C@H](O)[C@H]3O)cc2)cc1` [Example 19, [4-(4-Cyanobenzoyl)phenyl] α-L-arabinopyranoside], the “Activity (%): percentage inhibition of the increase in cholesterolemia compared with the control group” value is −31* %.
`CC(=O)O[C@@H]1[C@@H](OC(C)=O)[C@H](Oc2ccc(C(=O)c3ccc(C#N)cc3)cc2)OC[C@@H]1OC(C)=O` [Example 18, [4-(4-Cyanobenzoyl)phenyl] 2,3,4-tri-O-acetyl-α-L-arabinopyranoside]: the “Activity (%): percentage inhibition of the increase in cholesterolemia compared with the control group” value is listed as −2* %.

The same experiment, now with this note: total serum cholesterol; female C57BL/6J mice on fatty diet (1.25% cholesterol, 0.5% cholic acid); single dose 100 mg/kg by tubage.
With `CC(=O)O[C@@H]1[C@@H](Oc2ccc(C(=O)c3ccc(C#N)cc3)cc2)OC[C@H](OC(C)=O)[C@H]1OC(C)=O` [Example 12, [4-(4-Cyanobenzoyl)phenyl] 2,3,4-tri-O-acetyl-β-L-xylopyranoside], the “Activity (%): percentage inhibition of the increase in cholesterolemia compared with the control group” value is on record as −45%.
On the same count and under the same terms, then `N#Cc1ccc(C(=O)c2ccc(O[C@H]3OC[C@H](O)[C@H](O)[C@H]3O)cc2)cc1` [Example 11, [4-(4-Cyanobenzoyl)phenyl] β-L-arabinopyranoside], with −31%; and `CC(=O)O[C@@H]1[C@H](Oc2ccc(C(=O)c3ccc(C#N)cc3)cc2)OC[C@H](OC(C)=O)[C@H]1OC(C)=O` [Example 14, [4-(4-Cyanobenzoyl)phenyl] 2,3,4-tri-O-acetyl-α-L-xylopyranoside], with −36%.
Regarding `N#Cc1ccc(C(=O)c2ccc(O[C@@H]3O[C@H](CO)[C@@H](O)[C@H](O)[C@@H]3O)cc2)cc1` [Example 9, [4-(4-Cyanobenzoyl)phenyl] β-D-mannopyranoside], the “Activity (%): percentage inhibition of the increase in cholesterolemia compared with the control group” value was −39%.
Take `CC(=O)O[C@@H]1[C@H](Oc2ccc(C(=O)c3ccc(C#N)cc3)cc2)OC[C@@H](OC(C)=O)[C@H]1OC(C)=O` [Example 1, [4-(4-Cyanobenzoyl)phenyl] 2,3,4-tri-O-acetyl-β-D-arabinopyranoside]: the “Activity (%): percentage inhibition of the increase in cholesterolemia compared with the control group” value is on record as −25%.
Consider `CC(=O)O[C@H]1[C@H](Oc2ccc(C(=O)c3ccc(C#N)cc3)cc2)OC[C@@H](OC(C)=O)[C@H]1OC(C)=O` [Example 4, [4-(4-Cyanobenzoyl)phenyl] 2,3,4-tri-O-acetyl-β-D-ribopyranoside], for which the “Activity (%): percentage inhibition of the increase in cholesterolemia compared with the control group” value is recorded as −23%.
On the same count and under the same terms, as for `C[C@@H]1O[C@H](Oc2ccc(C(=O)c3ccc(C#N)cc3)cc2)[C@H](O)[C@H](O)[C@H]1O` [Example 17, [4-(4-Cyanobenzoyl)phenyl] β-L-rhamnopyranoside], the figure is −50%; as for `CC(=O)O[C@@H]1[C@@H](OC(C)=O)[C@@H](Oc2ccc(C(=O)c3ccc(C#N)cc3)cc2)OC[C@@H]1OC(C)=O` [Example 10, [4-(4-Cyanobenzoyl)phenyl] 2,3,4-tri-O-acetyl-β-L-arabinopyranoside], −22%.
As to `N#Cc1ccc(C(=O)c2ccc(O[C@@H]3OC[C@@H](O)[C@@H](O)[C@H]3O)cc2)cc1` [Example 5, [4-(4-Cyanobenzoyl)phenyl] β-D-ribopyranoside], the “Activity (%): percentage inhibition of the increase in cholesterolemia compared with the control group” value is −36%.
For the molecule `CC(=O)OC[C@H]1O[C@@H](Oc2ccc(C(=O)c3ccc(C#N)cc3)cc2)[C@H](OC(C)=O)[C@@H](OC(C)=O)[C@H]1OC(C)=O` [Example 6, [4-(4-Cyanobenzoyl)phenyl] 2,3,4,6-tetra-O-acetyl-β-D-galactopyranoside], the “Activity (%): percentage inhibition of the increase in cholesterolemia compared with the control group” value was −33%.
Regarding `CC(=O)O[C@@H]1[C@@H](OC(C)=O)[C@H](C)O[C@H](Oc2ccc(C(=O)c3ccc(C#N)cc3)cc2)[C@@H]1OC(C)=O` [Example 16, [4-(4-Cyanobenzoyl)phenyl] 2,3,4-tri-O-acetyl-β-L-rhamnopyranoside], the “Activity (%): percentage inhibition of the increase in cholesterolemia compared with the control group” value is −37%.
Same read-out and setting: as for `N#Cc1ccc(C(=O)c2ccc(O[C@@H]3OC[C@@H](O)[C@H](O)[C@@H]3O)cc2)cc1` [Example 3, [4-(4-Cyanobenzoyl)phenyl] β-D-lyxopyranoside], the figure is −28%; as for `N#Cc1ccc(C(=O)c2ccc(O[C@@H]3OC[C@H](O)[C@@H](O)[C@@H]3O)cc2)cc1` [Example 15, [4-(4-Cyanobenzoyl)phenyl] α-L-xylopyranoside], −32%.
As to `CC(=O)OC[C@H]1O[C@@H](Oc2ccc(C(=O)c3ccc(C#N)cc3)cc2)[C@@H](OC(C)=O)[C@@H](OC(C)=O)[C@@H]1OC(C)=O` [Example 8, [4-(4-Cyanobenzoyl)phenyl] 2,3,4,6-tetra-O-acetyl-β-D-mannopyranoside], the “Activity (%): percentage inhibition of the increase in cholesterolemia compared with the control group” value is reported as −17%.
Still for that read-out and setting: then `N#Cc1ccc(C(=O)c2ccc(O[C@@H]3OC[C@@H](O)[C@@H](O)[C@@H]3O)cc2)cc1` [Example 2, [4-(4-Cyanobenzoyl)phenyl] β-D-arabinopyranoside], with −29%; and `N#Cc1ccc(C(=O)c2ccc(O[C@@H]3O[C@H](CO)[C@H](O)[C@H](O)[C@H]3O)cc2)cc1` [Example 7, [4-(4-Cyanobenzoyl)phenyl] β-D-galactopyranoside], with −32%; and `N#Cc1ccc(C(=O)c2ccc(O[C@H]3OC[C@H](O)[C@@H](O)[C@@H]3O)cc2)cc1` [Example 13, [4-(4-Cyanobenzoyl)phenyl] β-L-xylopyranoside], with −45%.
